{
  "source": "paper PMC2824700",
  "about": "“Genetic analysis of the Staphylococcus epidermidis Macromolecular Synthesis Operon: Serp1129 is an ATP binding protein and sigA transcription is regulated by both σ^A- and σ^B-dependent promoters” (BMC Microbiology, 2010)",
  "biological_target": "T1, Serp1129 (Staphylococcus epidermidis, UniProt Q5HNY5)",
  "T1 construct": "full ORF in pET30a+ (NcoI/BamHI), His-tagged, E. coli BL21(DE3), HisTrap purified",
  "T1 sequence (Q5HNY5 1-272)": "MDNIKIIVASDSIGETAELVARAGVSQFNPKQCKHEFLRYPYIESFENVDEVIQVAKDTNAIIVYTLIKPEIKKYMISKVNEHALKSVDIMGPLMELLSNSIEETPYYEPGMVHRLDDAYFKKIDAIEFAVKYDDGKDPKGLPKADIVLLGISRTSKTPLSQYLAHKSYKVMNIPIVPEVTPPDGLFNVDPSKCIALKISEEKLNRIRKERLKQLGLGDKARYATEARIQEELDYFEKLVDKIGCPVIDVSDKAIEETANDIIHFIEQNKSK",
  "assay": "competition against biotinylated azidoanilide GTP photoaffinity label, streptavidin blot",
  "type": "binding",
  "settings": "5-30 uM unlabeled GTP versus 1 uM labelled analogue; 25 °C, 30 s, then UV 254 nm",
  "data": [
    {"smiles": "Nc1nc2c(ncn2[C@@H]2O[C@H](COP(=O)(O)OP(=O)(O)OP(=O)(O)O)[C@@H](O)[C@H]2O)c(=O)[nH]1", "note": "[GTP]", "values": [
      {"measurement": "competition against biotinylated azidoanilide GTP photoaffinity label, streptavi", "result": "A similar pattern was observed when GTP binding reactions were performed"}
    ]}
  ]
}
